Values of other authors in patent US20230149829A1, “ORAL COMPOSITIONS OF PLANTS THROUGH A DOUBLE EXTRACTION SYSTEM AND METHODS OF MAKING THE SAME” (Nulixir Inc., priority 2021, published 2023).

Assays:
[1] = n-octanol and water; categorization assumed at pH=7 unless stated otherwise
[2] = system: many strains of fungi

Compound | log P [1] | inhibitory activity against fungi [2]
COc1cc2c(c(OC)c1OC)-c1c(cc3c(c1OC)OCO3)CC(C)C(C)C2 (single isomer, unassigned; (-)) [(−)-schisandrin B] | ~4 | 
COc1ccc([C@@]23CCC(=O)C[C@@H]2N(C)CC3)cc1OC [mesembrine] | ~1.5 | 
(R)-kawain | ~2.7 | 
CC(C)=C[C@H]1C[C@](C)(O)[C@H]2[C@H]3CC[C@@H]4[C@@]5(C)CC[C@H](O[C@@H]6O[C@H](CO)[C@@H](O)[C@H](O[C@@H]7O[C@H](CO)[C@@H](O)[C@H](O)[C@H]7O)[C@H]6O[C@@H]6O[C@@H](CO)[C@H](O)[C@H]6O)C(C)(C)[C@@H]5CC[C@@]4(C)[C@@]34CO[C@@]2(C4)O1 [bacoside A3] | ~2.1 | 
COc1cc(/C=C\c2ccc(OC)c(O)c2)oc(=O)c1 [11-hydroxyyangonin] | ~2.2 | 
COc1cc2c(c(OC)c1OC)-c1c(cc(OC)c(OC)c1OC)C[C@](C)(O)[C@@H](C)C2 [(+)-schisandrin] | ~5 | 
COc1cc2c(c(OC)c1OC)-c1c(cc(OC)c(OC)c1OC)C[C@H](C)[C@H](C)C2 [(−)-schisandrin A] | ~3.6 | 
COC1=CC(=O)OC(/C=C/c2ccc(OC)cc2)C1 (stereo not drawn) [5,6-dihydroyangonin] | ~2.5 | 
COc1ccc([C@@]23C=CC(=O)C[C@@H]2N(C)CC3)cc1OC [mesembrenone] | ~1.3 | 
methylliberine | ~−0.083 | 
CC1=C(CO)C(=O)O[C@@H]([C@@H](C)[C@H]2CC[C@H]3[C@@H]4C[C@H](Cl)[C@]5(O)[C@@H](O)C=CC(=O)[C@]5(C)[C@H]4CC[C@]23C)C1 [6a-chloro-5b-hydroxywithaferin A] | ~3.2 | 
hericerin | ~6.4 | 
CC(C)=CCC[C@](C)(O[C@@H]1O[C@H](CO)[C@@H](O)[C@H](O)[C@H]1O)[C@H]1CC[C@]2(C)[C@@H]1[C@H](O)C[C@@H]1[C@@]3(C)CC[C@H](O)C(C)(C)[C@@H]3[C@@H](O[C@@H]3O[C@H](CO)[C@@H](O)[C@H](O)[C@H]3O)C[C@]12C [ginsenoside rg1] | ~0.8 | 
CC(C)=CCC[C@](C)(O[C@@H]1O[C@H](CO[C@@H]2O[C@H](CO)[C@@H](O)[C@H](O)[C@H]2O)[C@@H](O)[C@H](O)[C@H]1O)[C@H]1CC[C@]2(C)[C@@H]1[C@H](O)C[C@@H]1[C@@]3(C)CC[C@H](O[C@@H]4O[C@H](CO)[C@@H](O)[C@H](O)[C@H]4O[C@@H]4O[C@H](CO)[C@@H](O)[C@H](O)[C@H]4O)C(C)(C)[C@@H]3CC[C@]12C [ginsenoside rb1] | ~−1 | 
CC(=O)OC1C=CC(=O)N(C(=O)CCc2ccccc2)C1 (stereo not drawn) [pipermethystine] | ~1.8 | 
COC1=CC(=O)O[C@@H](CCc2ccc3c(c2)OCO3)C1 [7,8-dihydromethysticin] | ~2.2 | 
tortuosomine | ~3 | 
CC(C)=C[C@H]1C[C@](C)(O)[C@@H]2[C@H]3CC[C@@H]4[C@@]5(C)CC[C@H](O[C@@H]6OC[C@H](O)[C@H](O[C@@H]7O[C@H](CO)[C@@H](O)[C@H](O)[C@H]7O)[C@H]6O[C@@H]6O[C@@H](CO)[C@H](O)[C@H]6O)C(C)(C)[C@@H]5CC[C@@]4(C)[C@@]34CO[C@@]2(C4)O1 [bacopaside X] | ~2.2 | 
schisandroside C | ~1.6 | 
N#C[C@@]1(O[C@@H]2O[C@H](CO)[C@@H](O)[C@H](O)[C@H]2O)C=C[C@@H](O)C1 [tetraphyllin B] | ~−2.5 | 
herinacine A | ~2.5 | 
bacopaside B | ~2.8 | 
COc1ccc(CCc2cc(OC)cc(=O)o2)cc1 [7,8-dihydroyangonin] | ~2.9 | 
COc1ccc(C23C=CC(O)CC2N(C)CC3)cc1OC (stereo not drawn) [mesembrenol] | ~2.4 | 
CC(C)=C[C@@H]1CO[C@]23C[C@]4(CO2)[C@H](CC[C@@H]2[C@@]5(C)CC[C@H](O[C@@H]6OC[C@H](O)[C@H](O[C@@H]7O[C@H](CO)[C@@H](O)[C@H](O)[C@H]7O)[C@H]6O[C@@H]6O[C@@H](CO)[C@H](O)[C@H]6O)C(C)(C)[C@@H]5CC[C@]24C)[C@H]3[C@@]1(C)O [bacopasaponin C] | ~2 | 
O=CC=Cc1ccccc1 [Cinnamaldehyde] |  | strong inhibitory activity
COc1cc([C@H]2Oc3cc(O)c4c(=O)c(O)c(-c5ccc(O)cc5)oc4c3O[C@@H]2CO)ccc1O [rhodiolin] | ~2 | 
